Laboratory results taken from publication PMC12507958, “Modification of human metallothioneins by garlic organosulfur compounds, allicin and ajoene: direct effect on zinc homeostasis with relevance to immune regulation” (Biometals, 2025).

Key:
Format in all cases: binding
[1] = target: T1, MT2 (Homo sapiens, UniProt P02795); test: Zn(II) release followed with PAR; adducts by ESI-MS and top-down MS; settings: 1 uM Zn(II)-loaded MT2, 80 uM ajoene, 100 uM PAR, 50 mM HEPES, 100 mM NaCl, pH 7.4, 25 °C; covalent (Cys within residues 29-53)
T1 construct: gene MT2A; full-length recombinant, intein/chitin tag (pTYB21) cleaved by DTT, from E. coli BL21(DE3)pLysS; Zn7-loaded (Zn7MT2)

[2] = target: T2, MT3 (Homo sapiens, UniProt P25713); test: Zn(II) release followed with PAR at […] nm; settings: 1 uM Zn(II)-loaded MT, 80 uM allicin, 200 uM PAR, 50 mM HEPES, 100 mM NaCl, pH 7.4, 25 °C; covalent (Cys S-thioallylation)
T2 construct: full-length recombinant, intein/chitin tag (pTYB21) cleaved by DTT, from E. coli BL21(DE3)pLysS; Zn7-loaded

[3] = target: T3, MT1a (Homo sapiens, UniProt P04731); test: Zn(II) release followed with PAR at […] nm; settings: 1 uM Zn(II)-loaded MT, 80 uM allicin, 200 uM PAR, 50 mM HEPES, 100 mM NaCl, pH 7.4, 25 °C; covalent (Cys S-thioallylation)
T3 construct: full-length recombinant, intein/chitin tag (pTYB21) cleaved by DTT, from E. coli BL21(DE3)pLysS; Zn7-loaded

[4] = target: T4, MT4 (Homo sapiens, UniProt P47944); test: Zn(II) release followed with PAR at […] nm; settings: 1 uM Zn(II)-loaded MT, 80 uM allicin, 200 uM PAR, 50 mM HEPES, 100 mM NaCl, pH 7.4, 25 °C; covalent (Cys S-thioallylation)
T4 construct: full-length recombinant, intein/chitin tag (pTYB21) cleaved by DTT, from E. coli BL21(DE3)pLysS; Zn7-loaded

[5] = target: T1, MT2; test: Zn(II) release followed with PAR; adducts by ESI-MS and top-down MS; settings: 1 uM Zn(II)-loaded MT2, 80 uM allicin, 100 uM PAR, 50 mM HEPES, 100 mM NaCl, pH 7.4; covalent (S-thioallylation, Cys within residues 19-30)

T1 sequence (P02795 whole entry, the tested form may be a part): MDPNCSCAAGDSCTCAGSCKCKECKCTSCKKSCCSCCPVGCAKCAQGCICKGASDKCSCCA
T2 sequence (P25713 whole entry): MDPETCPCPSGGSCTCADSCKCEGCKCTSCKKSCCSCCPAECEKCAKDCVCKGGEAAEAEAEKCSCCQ
T4 sequence (P47944 whole entry): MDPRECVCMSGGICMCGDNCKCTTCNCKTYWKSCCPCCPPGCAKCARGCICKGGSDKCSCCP
T3 sequence (P04731 whole entry): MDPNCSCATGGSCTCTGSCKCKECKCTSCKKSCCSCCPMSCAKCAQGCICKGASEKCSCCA

C=CCSSC=CC[S+]([O-])CC=C (centres unmarked) [ajoene]
Zn(II) mol. eq. dissociated after 60 min [1]: almost 6

C=CCS[S+]([O-])CC=C (centres unmarked) [allicin]
Zn(II) mol. eq. dissociated after 60 min [2]: 5.2 mol. eq.
Zn(II) mol. eq. dissociated after 60 min [3]: 5 mol. eq.
Zn(II) mol. eq. dissociated after 60 min [4]: 2.8 mol. eq.
Zn(II) mol. eq. dissociated after 1 h [5]: 5.3 mol. eq.
